# Experimental data published in US11571407B2, “Bicalutamide analogs or (S)-bicalutamide as exocytosis activating compounds for use in the treatment of a lysosomal storage disorder or glycogenosis” (BCN PEPTIDES, S.A., priority 2013, dated 2023).
# Marks after values point to notes of the source that are not given here.
# Assays:
# [1] = system: fibroblasts from patients affected by different lysosomal storage diseases; experiment: Determination of lysosomal exocytosis (β-hexosaminidase activity in the culture medium); type: cell-based, human; details: for Increase in exocytosis (%), Median: Table 4 median over the patients' fibroblasts; for Increase in exocytosis (%), Median / Increase in exocytosis (%): 72 h
# Procedure: (§1) Fibroblasts from thirteen patients affected by seven different lysosomal storage diseases (Fabry, Gaucher, Hurler, Niemann-Pick type A/B, Sanfilippo A, Sanfilippo B and Tay-Sachs) were cultured in DMEM (Dulbecco's modified Eagles medium) with 10% fetal bovine serum and in the presence of antibiotics (penicillin and streptomycin), at 37° C. with 5% CO2. All reagents were purchased from PAA Laboratories (Velizy-Villacoublay, France). The fibroblasts of the patients were selected on the basis of availability of fibroblasts and measurable residual activity. The use of human samples was approved by the Ethical Committee of Hospital Clinic, Barcelona
# Fibroblasts cultured for 72 h in 24 well-plates in the presence or absence of bicalutamide, (S)-bicalutamide, (S)-bicalutamide analogs or (R)-bicalutamide at different concentrations in triplicate (10 nmol/L, 100 nmol/L, 1 μmol/L, 10 μmol/L, 50 μmol/L and 100 μmol/L), were rinsed with physiological saline. The cells were lysed by using 3 freeze-thaw cycles. Then protein concentration was determined by using the Lowry method. Protein lysates (10 μg) were seeded in 96-well plates and the enzymatic activity of the enzyme involved in each disease was determined in triplicate by means of fluorimetric artificial substrates: 4-methylumbelliferyl-α-N-sulphoglucosaminide for Sanfilippo A, 4-methylumbelliferyl-2-acetamido-2 deoxy-α-D-glucopyranoside for Sanfilippo B, 4-methylumbelliferyl-α-L-iduronide for Hurler, 4-methylumbelliferyl-N-acetyl-β-D-glucosaminide for Tay-sachs, 4-methylumbelliferyl-β-D-glucopyranoside for Gaucher, 4-methylumbelliferyl-α-Galactopiranosid for Fabry disease, and 6-hexadecanoylamino-4-methylumbelliferyl-P-colline for Niemann-Pick type AB. The activity of the enzyme β-hexosaminidase was assayed by using 4-methylumbelliferyl-2 acetamido-2 deoxy-β-D-glucopyranoside as artificial substrate [Annunziata et al., Study of influence of sex and age on human serum lysosomal enzymes by using 4-methylumbelliferyl substrates. Clin. Chim. Acta.
# Lysosomal exocytosis was monitorized by measuring the enzymatic activity of the lysosomal enzyme β-hexosaminidase in the culture medium [Xu M, et al, δ-Tocopherol reduces lipid accumulation in Niemann-Pick type C1 and Wolman cholesterol storage disorders. […] The fibroblasts were previously treated with different concentrations of bicalutamide, (S)-bicalutamide or (R)-bicalutamide (10 nmol/L, 100 nmol/L, 1 μmol/L, 10 μmol/L, 50 μmol/L and 100 μmol/L) in triplicate in 24-well plates. At 0, 24, 48 and 72 hours, 30 μL of culture medium was aliquoted for the subsequent β-hexosaminidase activity assay.
# Fibroblasts from two patients affected by Sanfilippo B and Hurler diseases were treated with different concentrations of bicalutamide (racemic mixture at increasing concentrations of 0.01, 0.1, 1, 10 and 100 μM). And the increase in lysosomal exocytosis was determined by analyzing the enzymatic activity of the lysosomal enzyme β-hexosaminidase in the culture medium.
# Fibroblasts from thirteen patients affected by different lysosomal storage diseases (four Sanfilippo B disease patients with different genotypes, three Sanfilippo A disease patients with different genotypes, two Tay-Sachs disease patients with the same genotype, one Gaucher disease patient, one Niemann-pick type A/B disease patient, one Hurler disease patient, and one Fabry disease patient) were independently treated with different concentrations of (R)- and (S)-bicalutamide (50 and 100 μM) for 72 hours.
# androgen receptors = details: cited from earlier work
# [2] = system: fibroblasts from patients affected by different lysosomal storage diseases; experiment: Cell viability, MTT assay; type: cell-based, human; set-up: key to Decrease of Cell Viability (%): N.S.: non significant decrease; details: 72 h
# Procedure: as §1
# Fibroblasts of early passage (between 5 and 9 passages) were plated in 6- or 24-well plates depending on the test and were treated for 72 hours with increasing concentrations (10 nmol/L, 100 nmol/L, 1 μmol/L, 10 μmol/L, 50 μmol/L and 100 μmol/L) of bicalutamide (Sigma-Aldrich, St. Louis, USA) and (R)- and (S)-bicalutamide (Toronto Research Chemicals Inc., Toronto (Ontario), Canada). Cell viability was evaluated in each cell line for each concentration using the 3-[4,5-dimethylthiazol-2-yl]-2,5-diphenyl tetrazolium bromide (MTT) assay (Sigma-aldrich, St. Louis, USA) described by Sumantran V. N. Cellular chemosensitivity assays: an overview. Methods Mol. Biol. (2011), 731, 219-236.
# Fibroblasts from thirteen patients with different lysosomal storage diseases (four patients affected by Sanfilippo B disease patients with different genotypes, three Sanfilippo A disease patients with different genotypes, two Tay-Sachs disease patients with the same genotype, one Gaucher disease patient, one Niemann-PickA/B disease patient, one Hurler disease patient and one Fabry disease patient) were independently treated with different concentrations of (R)- and (S)-bicalutamide (50 and 100 μM). Cell viability was evaluated for each treatment in each cell line using the MTT assay.
structure (smiles),measurement,setting,value
"C[C@@](O)(CS(=O)(=O)c1ccc(F)cc1)C(=O)Nc1ccc(C#N)c(C(F)(F)F)c1 (single isomer, unassigned) [(R)-BICALUTAMIDE (2)]","Increase in exocytosis (%), Median",[1]; 50 μM,0%
same,"Increase in exocytosis (%), Median",[1]; 100 μM,0%
same,Increase in exocytosis (%),"[1]; Table 4 patient 1, Sanfilippo B fibroblasts, 50 μM",0%
same,Increase in exocytosis (%),"[1]; Table 4 patient 1, Sanfilippo B fibroblasts, 100 μM",257* %
same,Increase in exocytosis (%),"[1]; Table 4 patient 2, Sanfilippo B fibroblasts, 50 μM",N.S.
same,Increase in exocytosis (%),"[1]; Table 4 patient 2, Sanfilippo B fibroblasts, 100 μM",N.S.
same,Increase in exocytosis (%),"[1]; Table 4 patient 3, Sanfilippo B fibroblasts, 50 μM",N.S.
same,Increase in exocytosis (%),"[1]; Table 4 patient 3, Sanfilippo B fibroblasts, 100 μM",N.S.
same,Increase in exocytosis (%),"[1]; Table 4 patient 4, Sanfilippo B fibroblasts, 50 μM",N.S.
same,Increase in exocytosis (%),"[1]; Table 4 patient 4, Sanfilippo B fibroblasts, 100 μM",0%
same,Increase in exocytosis (%),"[1]; Table 4 patient 5, Sanfilippo A fibroblasts, 50 μM",0%
same,Increase in exocytosis (%),"[1]; Table 4 patient 5, Sanfilippo A fibroblasts, 100 μM",0%
same,Increase in exocytosis (%),"[1]; Table 4 patient 6, Sanfilippo A fibroblasts, 50 μM",N.S.
same,Increase in exocytosis (%),"[1]; Table 4 patient 6, Sanfilippo A fibroblasts, 100 μM",N.S.
same,Increase in exocytosis (%),"[1]; Table 4 patient 7, Sanfilippo A fibroblasts, 50 μM",N.S.
same,Increase in exocytosis (%),"[1]; Table 4 patient 7, Sanfilippo A fibroblasts, 100 μM",0%
same,Increase in exocytosis (%),"[1]; Table 4 patient 8, Tay-Sachs fibroblasts, 50 μM",N.S.
same,Increase in exocytosis (%),"[1]; Table 4 patient 8, Tay-Sachs fibroblasts, 100 μM",0%
same,Increase in exocytosis (%),"[1]; Table 4 patient 9, Tay-Sachs fibroblasts, 50 μM",N.S.
same,Increase in exocytosis (%),"[1]; Table 4 patient 9, Tay-Sachs fibroblasts, 100 μM",0%
same,Increase in exocytosis (%),"[1]; Table 4 patient 10, Gaucher fibroblasts, 50 μM",N.S.
same,Increase in exocytosis (%),"[1]; Table 4 patient 10, Gaucher fibroblasts, 100 μM",0%
same,Increase in exocytosis (%),"[1]; Table 4 patient 11, Niemann-Pick AB fibroblasts, 50 μM",N.S.
same,Increase in exocytosis (%),"[1]; Table 4 patient 11, Niemann-Pick AB fibroblasts, 100 μM",0%
same,Increase in exocytosis (%),"[1]; Table 4 patient 12, Hurler fibroblasts, 50 μM",N.S.
same,Increase in exocytosis (%),"[1]; Table 4 patient 12, Hurler fibroblasts, 100 μM",N.S.
same,Increase in exocytosis (%),"[1]; Table 4 patient 13, Fabry fibroblasts, 50 μM",N.S.
same,Increase in exocytosis (%),"[1]; Table 4 patient 13, Fabry fibroblasts, 100 μM",0%
same,cell cultures with significantly increased lysosomal exocytosis,"[1]; thirteen patient fibroblast cultures, 50 and 100 μM, 72 hours",one of the tested cell cultures
same,anti-androgenic activity,androgen receptors,exclusively found in the (R)-enantiomer
same,Decrease of Cell Viability (%),"[2]; Table 3 patient 1, Sanfilippo B fibroblasts, 50 μM",20* %
same,Decrease of Cell Viability (%),"[2]; Table 3 patient 1, Sanfilippo B fibroblasts, 100 μM",37* %
same,Decrease of Cell Viability (%),"[2]; Table 3 patient 2, Sanfilippo B fibroblasts, 50 μM",10* %
same,Decrease of Cell Viability (%),"[2]; Table 3 patient 2, Sanfilippo B fibroblasts, 100 μM",26* %
same,Decrease of Cell Viability (%),"[2]; Table 3 patient 3, Sanfilippo B fibroblasts, 50 μM",40* %
same,Decrease of Cell Viability (%),"[2]; Table 3 patient 3, Sanfilippo B fibroblasts, 100 μM",52* %
same,Decrease of Cell Viability (%),"[2]; Table 3 patient 4, Sanfilippo B fibroblasts, 50 μM",0%
same,Decrease of Cell Viability (%),"[2]; Table 3 patient 4, Sanfilippo B fibroblasts, 100 μM",25* %
same,Decrease of Cell Viability (%),"[2]; Table 3 patient 5, Sanfilippo A fibroblasts, 50 μM",N.S.
same,Decrease of Cell Viability (%),"[2]; Table 3 patient 5, Sanfilippo A fibroblasts, 100 μM",N.S.
same,Decrease of Cell Viability (%),"[2]; Table 3 patient 6, Sanfilippo A fibroblasts, 50 μM",0%
same,Decrease of Cell Viability (%),"[2]; Table 3 patient 6, Sanfilippo A fibroblasts, 100 μM",0%
same,Decrease of Cell Viability (%),"[2]; Table 3 patient 7, Sanfilippo A fibroblasts, 50 μM",0%
same,Decrease of Cell Viability (%),"[2]; Table 3 patient 7, Sanfilippo A fibroblasts, 100 μM",0%
same,Decrease of Cell Viability (%),"[2]; Table 3 patient 8, Tay-Sachs fibroblasts, 50 μM",0%
same,Decrease of Cell Viability (%),"[2]; Table 3 patient 8, Tay-Sachs fibroblasts, 100 μM",0%
same,Decrease of Cell Viability (%),"[2]; Table 3 patient 9, Tay-Sachs fibroblasts, 50 μM",0%
same,Decrease of Cell Viability (%),"[2]; Table 3 patient 9, Tay-Sachs fibroblasts, 100 μM",N.S.
same,Decrease of Cell Viability (%),"[2]; Table 3 patient 10, Gaucher fibroblasts, 50 μM",0%
same,Decrease of Cell Viability (%),"[2]; Table 3 patient 10, Gaucher fibroblasts, 100 μM",24* %
same,Decrease of Cell Viability (%),"[2]; Table 3 patient 11, Niemann-Pick AB fibroblasts, 50 μM",0%
same,Decrease of Cell Viability (%),"[2]; Table 3 patient 11, Niemann-Pick AB fibroblasts, 100 μM",0%
same,Decrease of Cell Viability (%),"[2]; Table 3 patient 12, Hurler fibroblasts, 50 μM",0%
same,Decrease of Cell Viability (%),"[2]; Table 3 patient 12, Hurler fibroblasts, 100 μM",0%
same,Decrease of Cell Viability (%),"[2]; Table 3 patient 13, Fabry fibroblasts, 50 μM",0%
same,Decrease of Cell Viability (%),"[2]; Table 3 patient 13, Fabry fibroblasts, 100 μM",0%
